Assay results reported in the supplement of paper PMC10331698.
± gives the standard deviation of the averaged measurements.

How the values were obtained:
Assay in all cases: level (log10 ratio to DMSO vehicle control); higher = higher biomarker level / cell amount than vehicle control
Conditions in all cases: in DMSO
[1] = compound: FC(F)(F)C(F)(F)C(F)(F)C(F)(F)C(F)(F)C(F)(F)C(F)(F)C(F)(F)CCS [2-(Perfluorooctyl)ethanthiol]
Method: (§1)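 BioMAP Diversity Plus panel of 12 human primary cell co-culture systems (3C, 4H, LPS, SAg, BT, BF4T, BE3C, CASM3C, HDF3CGF, KF3CT, MyoF, Mphg). Compounds were added 1 h before stimulation and left for 24 h (MyoF 48 h; BT 72 h for soluble read-outs or 6 d for IgG). Biomarkers were read by ELISA, cytotoxicity by SRB, PBMC viability and proliferation by Alamar Blue. Each well value was divided by the mean of 8 DMSO control wells on the same plate and log10 transformed; duplicate blinded samples were tested at 4 concentrations.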

[2] = compound: FC(F)C(F)(F)COCC1CO1 [((2,2,3,3-Tetrafluoropropoxy)methyl)oxirane]
Method: as §1

Heptafluorobutyramide = compound: NC(=O)C(F)(F)C(F)(F)C(F)(F)F [Heptafluorobutyramide]
Method: as §1

Perfluoropentanoic acid = compound: O=C(O)C(F)(F)C(F)(F)C(F)(F)C(F)(F)F [Perfluoropentanoic acid]
Method: as §1

[3] = compound: O=C(O)C(F)(F)C(F)(F)OC(F)(F)F [Perfluoro-3-methoxypropanoic acid]
Method: as §1

[4] = compound: O=C(O)C(F)(F)OC(F)(F)C(F)(F)OC(F)(F)C(=O)O [Perfluoro-3,6-dioxaoctane-1,8-dioic acid]
Method: as §1

[5] = compound: O=C(O)C(F)(F)OC(F)(F)C(F)(F)OC(F)(F)F [Perfluoro-3,6-dioxaheptanoic acid]
Method: as §1

| Test System | level (log10) ([1]; 6700 nM) | level (log10) ([1]; 20000 nM) | level (log10) ([2]; 6700 nM) | level (log10) ([2]; 20000 nM) | level (log10) ([2]; 60000 nM) | level (log10) (Heptafluorobutyramide; 6700 nM) | level (log10) (Heptafluorobutyramide; 20000 nM) | level (log10) (Heptafluorobutyramide; 60000 nM) | level (log10) (Perfluoropentanoic acid; 6700 nM) | level (log10) (Perfluoropentanoic acid; 20000 nM) | level (log10) (Perfluoropentanoic acid; 60000 nM) | level (log10) ([3]; 6700 nM) | level (log10) ([3]; 20000 nM) | level (log10) ([3]; 60000 nM) | level (log10) ([4]; 6700 nM) | level (log10) ([4]; 20000 nM) | level (log10) ([4]; 60000 nM) | level (log10) ([5]; 6700 nM) | level (log10) ([5]; 20000 nM) | level (log10) ([5]; 60000 nM) |
| --- | --- | --- | --- | --- | --- | --- | --- | --- | --- | --- | --- | --- | --- | --- | --- | --- | --- | --- | --- | --- |
| 3C:CD87/uPAR | -0.0175 ± 0.0021 | -0.0215 ± 0.0035 | 0.0035 ± 0.012 | -0.002 ± 0.0042 | 0.009 ± 0.0042 | -0.014 ± 0.082 | -0.0435 ± 0.07 | -0.0375 ± 0.066 | -0.003 ± 0.021 | -0.0045 ± 0.021 | -0.0105 ± 0.015 | -0.016 ± 0.05 | -0.021 ± 0.013 | 0.021 ± 0.021 | 0.016 ± 0.044 | -0.013 ± 0.013 | 0.0195 ± 0.011 | -0.0205 ± 0.00071 | -0.0015 ± 0.019 | -0.015 ± 0.028 |
| 3C:CXCL8/IL-8 | 0.002 ± 0.018 | 0.044 ± 0.028 | -0.0255 ± 0.005 | -0.0275 ± 0.0021 | 0.003 ± 0.042 | 0.008 ± 0.0071 | -0.0035 ± 0.016 | 0.0105 ± 0.011 | -0.0065 ± 0.0092 | -0.005 ± 0.027 | 0.03 ± 0.079 | -0.017 ± 0.051 | -0.0255 ± 0.021 | 0.005 ± 0.037 | -0.015 ± 0.051 | -0.013 ± 0.034 | -0.007 ± 0.059 | 0.0235 ± 0.012 | 0.002 ± 0.035 | 0.0825 ± 0.074 |
| 3C:CXCL9/MIG | 0.002 | 0.0115 ± 0.005 | 0.0045 ± 0.013 | -0.0065 ± 0.016 | -0.0035 ± 0.0078 | -0.004 ± 0.016 | -0.0115 ± 0.0064 | -0.0065 ± 0.0078 | -0.0085 ± 0.018 | -0.0125 ± 0.03 | 0.0095 ± 0.028 | 0.0025 ± 0.0021 | -0.0065 ± 0.0078 | 0.0115 ± 0.00071 | 0.003 ± 0.0057 | -0.009 ± 0.0028 | 0.0095 ± 0.005 | -0.012 ± 0.0042 | -0.0005 ± 0.019 | 0.0065 ± 0.005 |
| 3C:HLA-DR | -0.015 ± 0.018 | -0.0235 ± 0.0078 | 0.012 ± 0.0085 | 0.013 ± 0.021 | 0.0235 ± 0.043 | 0.005 ± 0.0099 | 0.008 ± 0.0057 | -0.007 ± 0.0028 | -0.0075 ± 0.0035 | 0.0015 ± 0.021 | 0.018 ± 0.037 | -0.0095 ± 0.015 | -0.043 ± 0.0085 | -0.014 ± 0.0028 | 0.008 ± 0.018 | -0.037 ± 0.013 | -0.0065 ± 0.012 | -0.035 ± 0.033 | -0.0075 ± 0.0078 | -0.0115 ± 0.021 |
| 3C:Proliferation | 0.0355 ± 0.029 | -0.016 ± 0.013 | -0.034 ± 0.016 | -0.0165 ± 0.00071 | -0.039 ± 0.02 | 0.006 ± 0.04 | 0.003 ± 0.051 | -0.006 ± 0.045 | -0.029 ± 0.028 | 0.011 | 0.0015 ± 0.046 | -0.0295 ± 0.056 | -0.023 ± 0.03 | -0.0135 ± 0.037 | 0.002 ± 0.0028 | -0.038 ± 0.044 | -0.033 ± 0.014 | -0.0305 ± 0.025 | -0.031 ± 0.05 | -0.0205 ± 0.0064 |
| 3C:SRB | 0.005 ± 0.0071 | -0.013 ± 0.016 | -0.0085 ± 0.0078 | -0.008 ± 0.0028 | -0.004 ± 0.0099 | -0.0235 ± 0.04 | -0.0095 ± 0.0078 | -0.007 ± 0.024 | -0.0115 ± 0.013 | 0.001 ± 0.014 | 0.007 ± 0.018 | 0.001 ± 0.0014 | 0.0005 ± 0.019 | -0.004 ± 0.017 | 0.0055 ± 0.0064 | -0.0055 ± 0.016 | -0.004 ± 0.0014 | -0.01 ± 0.0071 | -0.022 ± 0.0057 | -0.008 ± 0.0042 |
| 4H:CCL2/MCP-1 | -0.02 ± 0.017 | 0.0395 ± 0.035 | 0.021 ± 0.023 | -0.0005 ± 0.042 | 0.0235 ± 0.066 | -0.026 ± 0.013 | -0.0325 ± 0.022 | 0.004 ± 0.095 | -0.0085 ± 0.052 | -0.047 ± 0.0042 | 0.014 ± 0.052 | -0.0045 ± 0.039 | -0.0095 ± 0.0092 | 0.003 | 0.003 ± 0.041 | -0.032 ± 0.018 | 0.0205 ± 0.0035 | -0.0265 ± 0.037 | -0.0345 ± 0.018 | 0.031 ± 0.0085 |
| 4H:CCL26/Eotaxin-3 | 0.008 ± 0.017 | -0.0145 ± 0.0064 | 0.0035 ± 0.0078 | 0 ± 0.041 | 0.014 ± 0.05 | 0.0315 ± 0.021 | 0.0345 ± 0.0035 | 0.0185 ± 0.019 | 0.0015 ± 0.0035 | -0.0185 ± 0.022 | 0.004 ± 0.05 | -0.013 ± 0.013 | -0.0085 ± 0.019 | 0.021 ± 0.0099 | 0.0045 ± 0.022 | 0.017 ± 0.021 | 0.0085 ± 0.0092 | -0.0115 ± 0.016 | 0.0075 ± 0.0064 | -0.024 ± 0.03 |
| 4H:CD62P/P-selectin | 0.019 ± 0.0071 | -0.017 | 0.0275 ± 0.043 | -0.0285 ± 0.087 | -0.051 ± 0.071 | 0.002 ± 0.0099 | 0.049 ± 0.034 | 0.015 ± 0.02 | -0.0025 ± 0.067 | -0.023 ± 0.03 | -0.0285 ± 0.043 | -0.004 ± 0.0057 | 0.005 ± 0.011 | 0.0065 ± 0.029 | -0.004 | 0.014 ± 0.0014 | 0.0275 ± 0.013 | -0.0245 ± 0.061 | 0.0025 ± 0.0092 | -0.0185 ± 0.018 |
| 4H:CD87/uPAR | -0.0055 ± 0.0021 | -0.0165 ± 0.0021 | -0.013 | -0.0205 ± 0.03 | -0.012 ± 0.0042 | 0.048 ± 0.014 | 0.031 ± 0.0014 | 0.0315 ± 0.0092 | -0.0435 ± 0.035 | -0.0355 ± 0.005 | -0.055 ± 0.0028 | -0.031 ± 0.044 | -0.0165 ± 0.047 | -0.0045 ± 0.029 | -0.0095 ± 0.032 | -0.009 ± 0.037 | 0.001 ± 0.011 | -0.0205 ± 0.023 | -0.019 ± 0.011 | -0.019 ± 0.018 |
| 4H:CD106/VCAM-1 | -0.0055 ± 0.005 | -0.0025 ± 0.012 | 0.01 ± 0.013 | -0.017 ± 0.0042 | -0.023 ± 0.017 | -0.004 ± 0.021 | -0.014 ± 0.025 | -0.0155 ± 0.015 | 0.002 ± 0.038 | 0.0125 ± 0.0021 | 0.024 ± 0.013 | 0.0005 ± 0.016 | -0.005 ± 0.0085 | 0.007 ± 0.0057 | 0.01 ± 0.023 | -0.0125 ± 0.0078 | -0.001 ± 0.0042 | -0.0245 ± 0.0092 | 0.001 ± 0.034 | -0.0215 ± 0.021 |
| 4H:SRB | 0.0085 ± 0.011 | -0.003 ± 0.0057 | -0.015 ± 0.0085 | -0.003 ± 0.0042 | -0.012 ± 0.027 | -0.0275 ± 0.026 | -0.0165 ± 0.0035 | -0.006 ± 0.018 | -0.0125 ± 0.00071 | -0.0065 ± 0.016 | -0.0025 ± 0.021 | -0.013 ± 0.0071 | -0.004 ± 0.0071 | 0.0015 ± 0.033 | -0.0115 ± 0.0078 | -0.0115 ± 0.022 | -0.003 ± 0.027 | 0.009 ± 0.0042 | 0.0085 ± 0.0035 | 0 ± 0.0042 |
| 4H:VEGFR2 | -0.0145 ± 0.026 | 0.0405 ± 0.074 | 0.0095 ± 0.04 | 0.0065 ± 0.033 | -0.0085 ± 0.026 | 0.018 ± 0.024 | 0.01 | 0.0075 ± 0.029 | 0.0065 ± 0.056 | 0.0025 ± 0.013 | 0.008 ± 0.025 | -0.085 ± 0.041 | -0.0895 ± 0.05 | -0.009 ± 0.093 | -0.045 ± 0.016 | -0.06 ± 0.011 | -0.016 ± 0.047 | -0.035 ± 0.0099 | -0.009 ± 0.048 | -0.013 ± 0.0071 |
